Laboratory results as given in ChEMBL document CHEMBL4477259, “Discovery and structure-activity relationships of a novel isothiazolone class of bacterial type II topoisomerase inhibitors” (Bioorg Med Chem Lett, 2016).
In brackets after ≈: the same amount, converted by molar mass.

Columns and labels:
Escherichia coli [1] = experiment: Antibacterial activity against Escherichia coli W4573; type: functional
Klebsiella pneumoniae = experiment: Antibacterial activity against Klebsiella pneumoniae ATCC 700603; type: functional
Staphylococcus aureus = experiment: Antibacterial activity against Staphylococcus aureus ATCC 29213; type: functional
Pseudomonas aeruginosa = experiment: Antibacterial activity against Pseudomonas aeruginosa ATCC 27853; type: functional
Acinetobacter baumannii = experiment: Antibacterial activity against Acinetobacter baumannii NCTC 13420; type: functional
Escherichia coli [2] = experiment: Antibacterial activity against Escherichia coli N43; type: functional
Escherichia coli [3] = experiment: Antibacterial activity against Escherichia coli CH440 harboring GyrA S83L/D87N double mutant/ParC S80I E84V double mutant/aac(6')-lb-cr; type: functional
Escherichia coli [4] = experiment: Antibacterial activity against Escherichia coli LM367 harboring delta marR/delta acrR double mutant; type: functional
Escherichia coli [5] = experiment: Antibacterial activity against Escherichia coli CH448 harboring GyrA S83L mutant/qnrS; type: functional
Escherichia coli [6] = experiment: Selectivity ratio of MIC for Escherichia coli LM693 harboring GyrA S83L/D87N double mutant/ParC S80I mutant to MIC for wild type Escherichia coli LM179; type: functional
Escherichia coli [7] = experiment: Selectivity ratio of MIC for Escherichia coli CH460 harboring GyrA S83L/D87N double mutant/ParC S80I E84V double mutant/qepA to MIC for wild type Escherichia coli LM179; type: functional
Escherichia coli [8] = experiment: Selectivity ratio of MIC for Escherichia coli CH418 harboring GyrA S83L/D87N double mutant/ParC S80I E84G double mutant/qnrA to MIC for wild type Escherichia coli LM179; type: functional
Escherichia coli [9] = experiment: Selectivity ratio of MIC for Escherichia coli LM625 harboring GyrA S83L/D87N double mutant to MIC for wild type Escherichia coli LM179; type: functional
Escherichia coli [10] = experiment: Antibacterial activity against wild type Escherichia coli LM179; type: functional
Escherichia coli [11] = experiment: Antibacterial activity against Escherichia coli LM693 harboring GyrA S83L/D87N double mutant/ParC S80I mutant; type: functional
Escherichia coli [12] = experiment: Antibacterial activity against Escherichia coli LM625 harboring GyrA S83L/D87N double mutant; type: functional
Escherichia coli [13] = experiment: Selectivity ratio of MIC for Escherichia coli CH448 harboring GyrA S83L mutant/qnrS to MIC for wild type Escherichia coli LM179; type: functional
Escherichia coli [14] = experiment: Antibacterial activity against Escherichia coli LM705 harboring GyrA S83L/D87N double mutant/ParC S80I mutant/delta marR/delta acrR double mutant; type: functional
Escherichia coli [15] = experiment: Selectivity ratio of MIC for Escherichia coli LM367 harboring delta marR/delta acrR double mutant to MIC for wild type Escherichia coli LM179; type: functional
Escherichia coli [16] = experiment: Selectivity ratio of MIC for Escherichia coli LM705 harboring GyrA S83L/D87N double mutant/ParC S80I mutant/delta marR/delta acrR double mutant to MIC for wild type Escherichia coli LM179; type: functional
Escherichia coli [17] = experiment: Antibacterial activity against Escherichia coli CH418 harboring GyrA S83L/D87N double mutant/ParC S80I E84G double mutant/qnrA; type: functional
Escherichia coli [18] = experiment: Selectivity ratio of MIC for Escherichia coli CH440 harboring GyrA S83L/D87N double mutant/ParC S80I E84V double mutant/aac(6')-lb-cr to MIC for wild type Escherichia coli LM179; type: functional
Escherichia coli [19] = experiment: Antibacterial activity against Escherichia coli CH460 harboring GyrA S83L/D87N double mutant/ParC S80I E84V double mutant/qepA; type: functional
[20] = n-octanol/phosphate buffer partition coefficient, log D of compound at pH 7.4 by shake-flask assay; type: physicochemical
hERG (KCNH2) = hERG (KCNH2) (Homo sapiens, UniProt Q12809); experiment: Inhibition of human ERG channel at 100 uM by automated patch clamp assay
HepG2 = experiment: Cytotoxicity against human HepG2 cells after 24 hrs by cell titre-glo assay; type: cell-based; details: HepG2, 24 h

hERG (KCNH2), sequence (Q12809 whole entry): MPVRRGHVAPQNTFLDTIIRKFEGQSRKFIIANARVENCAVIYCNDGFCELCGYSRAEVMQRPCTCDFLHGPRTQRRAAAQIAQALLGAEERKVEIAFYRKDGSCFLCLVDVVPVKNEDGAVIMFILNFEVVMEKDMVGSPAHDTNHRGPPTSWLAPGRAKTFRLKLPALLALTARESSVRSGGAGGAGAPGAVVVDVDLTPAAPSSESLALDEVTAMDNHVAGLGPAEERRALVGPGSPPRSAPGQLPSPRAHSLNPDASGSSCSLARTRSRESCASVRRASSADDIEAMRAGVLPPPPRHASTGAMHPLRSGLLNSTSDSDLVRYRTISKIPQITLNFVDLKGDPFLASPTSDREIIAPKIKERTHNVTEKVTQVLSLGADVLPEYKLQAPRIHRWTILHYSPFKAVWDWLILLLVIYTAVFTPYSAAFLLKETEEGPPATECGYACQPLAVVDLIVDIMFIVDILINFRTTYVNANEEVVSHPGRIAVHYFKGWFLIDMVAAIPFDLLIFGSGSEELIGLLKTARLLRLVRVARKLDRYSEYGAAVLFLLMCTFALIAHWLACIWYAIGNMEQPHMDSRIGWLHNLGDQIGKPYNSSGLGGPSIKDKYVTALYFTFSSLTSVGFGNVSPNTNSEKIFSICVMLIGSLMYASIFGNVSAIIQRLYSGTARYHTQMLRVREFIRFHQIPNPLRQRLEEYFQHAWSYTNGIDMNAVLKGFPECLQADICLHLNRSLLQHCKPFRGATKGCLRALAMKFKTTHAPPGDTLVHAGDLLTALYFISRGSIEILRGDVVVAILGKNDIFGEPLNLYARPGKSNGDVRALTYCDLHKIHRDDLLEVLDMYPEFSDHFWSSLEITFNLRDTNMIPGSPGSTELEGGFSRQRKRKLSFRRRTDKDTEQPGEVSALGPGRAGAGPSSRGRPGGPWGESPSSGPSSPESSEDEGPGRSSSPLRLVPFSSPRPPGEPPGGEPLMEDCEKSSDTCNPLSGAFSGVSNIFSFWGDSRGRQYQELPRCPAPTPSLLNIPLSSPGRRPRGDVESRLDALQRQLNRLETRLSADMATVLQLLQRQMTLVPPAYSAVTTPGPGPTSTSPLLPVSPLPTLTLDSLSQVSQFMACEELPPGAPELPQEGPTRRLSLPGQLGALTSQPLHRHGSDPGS

| SMILES | MIC (Escherichia coli [1]) | MIC (Klebsiella pneumoniae) | MIC (Staphylococcus aureus) | MIC (Pseudomonas aeruginosa) | MIC (Acinetobacter baumannii) | MIC (Escherichia coli [2]) | also measured |
| --- | --- | --- | --- | --- | --- | --- | --- |
| CCc1c(-c2ccc(N3CC[C@H](N(C)C)C3)cc2)[nH]c(=O)c2c(=O)[nH]sc12 | 0.015 µg/mL (≈ 0.039 µM) | 4 µg/mL (≈ 10.4 µM) | 0.5 µg/mL (≈ 1.3 µM) | 1 µg/mL (≈ 2.6 µM) | 1 µg/mL (≈ 2.6 µM) | 0.001 µg/mL (≈ 0.0026 µM) |  |
| CCc1c(-c2ccc(Cl)cc2)[nH]c(=O)c2c(=O)[nH]sc12 | 16 µg/mL (≈ 52.2 µM) | 128 µg/mL (≈ 417 µM) | 8 µg/mL (≈ 26.1 µM) | > 128 µg/mL | 16 µg/mL (≈ 52.2 µM) | 0.25 µg/mL (≈ 0.815 µM) |  |
| CCc1c(-c2ccc(N3CCC(N)C3)cc2)[nH]c(=O)c2c(=O)[nH]sc12 (stereo not drawn) | 0.002 µg/mL (≈ 0.00561 µM) | 4 µg/mL (≈ 11.2 µM) | 0.12 µg/mL (≈ 0.337 µM) | 0.06 µg/mL (≈ 0.168 µM) | 64 µg/mL (≈ 180 µM) | ≤ 0.0001 µg/mL |  |
| CCc1c(-c2cccc(N3CCC(N(C)C)C3)c2)[nH]c(=O)c2c(=O)[nH]sc12 (stereo not drawn) | > 64 µg/mL | > 128 µg/mL | 32 µg/mL (≈ 83.2 µM) | > 128 µg/mL | 64 µg/mL (≈ 166 µM) | 8 µg/mL (≈ 20.8 µM) |  |
| CCc1c(-c2ccc3c(cnn3C)c2)[nH]c(=O)c2c(=O)[nH]sc12 | 0.5 µg/mL (≈ 1.53 µM) | 16 µg/mL (≈ 49 µM) | 0.12 µg/mL (≈ 0.368 µM) | 4 µg/mL (≈ 12.3 µM) | 2 µg/mL (≈ 6.13 µM) | 0.004 µg/mL (≈ 0.0123 µM) | MIC (Escherichia coli [3]): 16 µg/mL (≈ 49 µM); MIC (Escherichia coli [4]): 4 µg/mL (≈ 12.3 µM); MIC (Escherichia coli [5]): 16 µg/mL (≈ 49 µM); Selectivity ratio (Escherichia coli [6]): 32; Selectivity ratio (Escherichia coli [7]): 32; Selectivity ratio (Escherichia coli [8]): 32; Selectivity ratio (Escherichia coli [9]): 16; MIC (Escherichia coli [10]): 0.5 µg/mL (≈ 1.53 µM); MIC (Escherichia coli [11]): 16 µg/mL (≈ 49 µM); MIC (Escherichia coli [12]): 8 µg/mL (≈ 24.5 µM); Selectivity ratio (Escherichia coli [13]): 32; MIC (Escherichia coli [14]): > 64 µg/mL; Selectivity ratio (Escherichia coli [15]): 8; Selectivity ratio (Escherichia coli [16]): >128; MIC (Escherichia coli [17]): 16 µg/mL (≈ 49 µM); Selectivity ratio (Escherichia coli [18]): 32; MIC (Escherichia coli [19]): 16 µg/mL (≈ 49 µM) |
| CCc1c(-c2ccc(N3CCC(NC)C3)cc2)[nH]c(=O)c2c(=O)[nH]sc12 (stereo not drawn) | 0.008 µg/mL (≈ 0.0216 µM) | 2 µg/mL (≈ 5.4 µM) | 0.12 µg/mL (≈ 0.324 µM) | 0.06 µg/mL (≈ 0.162 µM) | 16 µg/mL (≈ 43.2 µM) | 0.001 µg/mL (≈ 0.0027 µM) | logD [20]: 1.2; inhibition at 100 µM (hERG (KCNH2)): 34%; IC50 (HepG2): > 128 µg/mL |
| CCc1c(-c2cccc(N3CCC(NC)C3)c2)[nH]c(=O)c2c(=O)[nH]sc12 (stereo not drawn) |  | > 128 µg/mL | 32 µg/mL (≈ 86.4 µM) | > 128 µg/mL | > 128 µg/mL |  |  |
| CCc1c(-c2ccc(N3CCC(F)(F)C3)cc2)[nH]c(=O)c2c(=O)[nH]sc12 | 0.5 µg/mL (≈ 1.32 µM) | > 64 µg/mL | 0.12 µg/mL (≈ 0.318 µM) | 4 µg/mL (≈ 10.6 µM) | > 64 µg/mL | 0.12 µg/mL (≈ 0.318 µM) |  |
| CCc1c(-c2ccc(N3CCC(N(C)C)CC3)cc2)[nH]c(=O)c2c(=O)[nH]sc12 | 16 µg/mL (≈ 40.1 µM) | > 64 µg/mL | 16 µg/mL (≈ 40.1 µM) | 64 µg/mL (≈ 161 µM) | > 64 µg/mL | 0.5 µg/mL (≈ 1.25 µM) |  |
| CCc1c(-c2ccc(N3CCC(NC)CC3)cc2)[nH]c(=O)c2c(=O)[nH]sc12 | 32 µg/mL (≈ 83.2 µM) | > 64 µg/mL | 16 µg/mL (≈ 41.6 µM) | 64 µg/mL (≈ 166 µM) | > 64 µg/mL | 1 µg/mL (≈ 2.6 µM) |  |
